In patent US6573218B1, “Fused-benzene derivatives useful as herbicides” (Ishihara Sangyo Kaisha, Ltd., priority 1998, dated 2003):

How the values were obtained:
Format in all cases: in vivo
[1] = tested on: redroot pigweed (Amaranthus retroflexus, AMARE); assay: Pre-emerge greenhouse herbicide test; conditions: 14 days after application, scale 0-100 (0 no damage, 100 complete death)
Source text: (§1) A standard greenhouse herbicide activity screening system was used to evaluate the herbicidal efficacy and crop safety of these test compounds. Seven broadleaf weed species including redroot pigweed (Amaranthus retroflexus, AMARE), velvetleaf (Abutilon theophrasti, ABUTH), sicklepod (Cassia obtusifolia, CASOB), ivyleaf morningglory (Ipomoea hederacea, IPOHE), lambsquarters (Chenopodium album, CHEAL), common ragweed (Ambrosia artemisiifolia L., AMBEL), and cocklebur (Xanthium strumarium, XANST) were used as test species. Four grass weed species including green foxtail (Setaria viridis, SETVI), barnyardgrass (Echinochloa crus-galli, ECHCG), johnsongrass (Sorghum halepense, SORHA), and large crabgrass (Digitaria sanguinalis, DIGSA) were also used. In addition, three crop species, field corn (Zea mays L., var. Dekalb 527, CORN), soybean (Glycine max L., var. Pella 86, SOY), and upland rice (Ory0a sp., var.Tebonnet, RICE) were included.
(§2) All plants were grown in 10 cm square plastic pots which were filled with a sandy loam soil mix. For pre-emerge tests, seeds were planted one day prior to application of the test compounds. For post-emerge tests, seeds were planted 8-21 days prior to the test to allow emergence and good foliage development prior to application of the test substances. At the time of the post-emerge application, plants of all species were usually at the 2-3 leaf stage of development.
(§3) All test compounds were dissolved in acetone and applied to the test units in a volume of 187 l/ha. Test materials were applied at rates ranging from 15 g ai/ha to 1000 g ai/ha using a track sprayer equipped with a TJ8001E even flow flat fan spray nozzle. Plants were arranged on a shelf so that the top of the canopy (post-emerge) or top of the soil surface (pre-emerge) was 40-45 cm below the nozzle. Pressurized air was used to force the test solution through the nozzle as it was mechanically advanced over the top of all test plants/pots. This application simulates a typical commercial field herbicide application.
(§4) In the post-emerge test, a commercial non-ionic surfactant was also included (0.25% v/v) to enhance wetting of the leaf surfaces of target plants. Immediately after application, test units of the pre-emerge applications were watered at the soil surface to incorporate the test materials.
(§5) At 14 days after application of the test materials, phytotoxicity ratings were recorded. A rating scale of 0-100 was used as previously described in Research Methods in Weed Science, 2nd edition, B. Truelove, Ed., Southern Weed Science Society, Auburn University, Auburn, Ala., 1977. Briefly, “0” corresponds to no damage and “100” corresponds to complete death of all plants in the test unit. This scale was used both to determine efficacy against weed species and damage to crop species. Herbicide activity data for various compounds of this invention, which are shown by compound No. in Tables 1-14, are shown in Tables 16 and 17.

[2] = tested on: lambsquarters (Chenopodium album, CHEAL); assay: Pre-emerge greenhouse herbicide test; conditions: 14 days after application, scale 0-100 (0 no damage, 100 complete death)
Source text: as §1, §2, §3, §4, §5

[3] = tested on: sicklepod (Cassia obtusifolia, CASOB); assay: Pre-emerge greenhouse herbicide test; conditions: 14 days after application, scale 0-100 (0 no damage, 100 complete death)
Source text: as §1, §2, §3, §4, §5

[4] = tested on: large crabgrass (Digitaria sanguinalis, DIGSA); assay: Pre-emerge greenhouse herbicide test; conditions: 14 days after application, scale 0-100 (0 no damage, 100 complete death)
Source text: as §1, §2, §3, §4, §5

[5] = tested on: johnsongrass (Sorghum halepense, SORHA); assay: Pre-emerge greenhouse herbicide test; conditions: 14 days after application, scale 0-100 (0 no damage, 100 complete death)
Source text: as §1, §2, §3, §4, §5

[6] = tested on: green foxtail (Setaria viridis, SETVI); assay: Pre-emerge greenhouse herbicide test; conditions: 14 days after application, scale 0-100 (0 no damage, 100 complete death)
Source text: as §1, §2, §3, §4, §5

[7] = tested on: barnyardgrass (Echinochloa crus-galli, ECHCG); assay: Pre-emerge greenhouse herbicide test; conditions: 14 days after application, scale 0-100 (0 no damage, 100 complete death)
Source text: as §1, §2, §3, §4, §5

[8] = tested on: ivyleaf morningglory (Ipomoea hederacea, IPOHE); assay: Pre-emerge greenhouse herbicide test; conditions: 14 days after application, scale 0-100 (0 no damage, 100 complete death)
Source text: as §1, §2, §3, §4, §5

[9] = tested on: velvetleaf (Abutilon theophrasti, ABUTH); assay: Pre-emerge greenhouse herbicide test; conditions: 14 days after application, scale 0-100 (0 no damage, 100 complete death)
Source text: as §1, §2, §3, §4, §5

[10] = tested on: redroot pigweed (Amaranthus retroflexus, AMARE); assay: Post-emerge greenhouse herbicide test; conditions: 14 days after application
Source text: as §1, §2, §3, §4, §5

[11] = tested on: lambsquarters (Chenopodium album, CHEAL); assay: Post-emerge greenhouse herbicide test; conditions: 14 days after application
Source text: as §1, §2, §3, §4, §5

[12] = tested on: sicklepod (Cassia obtusifolia, CASOB); assay: Post-emerge greenhouse herbicide test; conditions: 14 days after application
Source text: as §1, §2, §3, §4, §5

[13] = tested on: large crabgrass (Digitaria sanguinalis, DIGSA); assay: Post-emerge greenhouse herbicide test; conditions: 14 days after application
Source text: as §1, §2, §3, §4, §5

[14] = tested on: johnsongrass (Sorghum halepense, SORHA); assay: Post-emerge greenhouse herbicide test; conditions: 14 days after application
Source text: as §1, §2, §3, §4, §5

[15] = tested on: green foxtail (Setaria viridis, SETVI); assay: Post-emerge greenhouse herbicide test; conditions: 14 days after application
Source text: as §1, §2, §3, §4, §5

[16] = tested on: barnyardgrass (Echinochloa crus-galli, ECHCG); assay: Post-emerge greenhouse herbicide test; conditions: 14 days after application
Source text: as §1, §2, §3, §4, §5

[17] = tested on: ivyleaf morningglory (Ipomoea hederacea, IPOHE); assay: Post-emerge greenhouse herbicide test; conditions: 14 days after application
Source text: as §1, §2, §3, §4, §5

[18] = tested on: velvetleaf (Abutilon theophrasti, ABUTH); assay: Post-emerge greenhouse herbicide test; conditions: 14 days after application
Source text: as §1, §2, §3, §4, §5

[19] = tested on: soybean (Glycine max L., var. Pella 86, SOY); assay: Post-emerge greenhouse crop damage test; conditions: var. Pella 86, soybean (Glycine max L.), in vivo, 14 days
Source text: as §1, §2, §3, §4, §5

[20] = tested on: field corn (Zea mays L., var. Dekalb 527, CORN); assay: Post-emerge greenhouse crop damage test; conditions: var. Dekalb 527, field corn (Zea mays L.), in vivo, 14 days
Source text: as §1, §2, §3, §4, §5

[21] = tested on: upland rice (Ory0a sp., var.Tebonnet, RICE); assay: Post-emerge greenhouse crop damage test; conditions: var. Tebonnet, upland rice (Ory0a sp.), in vivo, 14 days
Source text: as §1, §2, §3, §4, §5

[22] = tested on: soybean (Glycine max L., var. Pella 86, SOY); assay: Pre-emerge greenhouse crop damage test; conditions: var. Pella 86, soybean (Glycine max L.), in vivo, 14 days
Source text: as §1, §2, §3, §4, §5

[23] = tested on: field corn (Zea mays L., var. Dekalb 527, CORN); assay: Pre-emerge greenhouse crop damage test; conditions: var. Dekalb 527, field corn (Zea mays L.), in vivo, 14 days
Source text: as §1, §2, §3, §4, §5

[24] = tested on: upland rice (Ory0a sp., var.Tebonnet, RICE); assay: Pre-emerge greenhouse crop damage test; conditions: var. Tebonnet, upland rice (Ory0a sp.), in vivo, 14 days
Source text: as §1, §2, §3, §4, §5

Compound: Cn1c(C(F)(F)F)cc(=O)n(-c2c(F)cc(Cl)c3c2N=C(c2ccccc2)CO3)c1=O [Compound 1-3, 3-(8-Chloro-6-fluoro-3-phenyl-2H-1,4-benzoxazin-5-yl)-1-methyl-6-trifluoromethyl-2,4(1H,3H)-pyrimidindione]
- Pre-emerge Herbicidal Activity AMARE (phytotoxicity rating) ([1]; 250 g ai/ha): 100
- Pre-emerge Herbicidal Activity CHEAL (phytotoxicity rating) ([2]; 250 g ai/ha): 100
- Pre-emerge Herbicidal Activity CASOB (phytotoxicity rating) ([3]; 250 g ai/ha): 80
- Pre-emerge Herbicidal Activity DIGSA (phytotoxicity rating) ([4]; 250 g ai/ha): 0
- Pre-emerge Herbicidal Activity SORHA (phytotoxicity rating) ([5]; 250 g ai/ha): 0
- Pre-emerge Herbicidal Activity SETVI (phytotoxicity rating) ([6]; 250 g ai/ha): 80
- Pre-emerge Herbicidal Activity ECHCG (phytotoxicity rating) ([7]; 250 g ai/ha): 0
- Pre-emerge Herbicidal Activity IPOHE (phytotoxicity rating) ([8]; 250 g ai/ha): 0
- Pre-emerge Herbicidal Activity ABUTH (phytotoxicity rating) ([9]; 250 g ai/ha): 80
- Post-emerge Herbicidal Activity AMARE (phytotoxicity rating 0-100) ([10]; 250 g ai/ha): 60
- Post-emerge Herbicidal Activity CHEAL (phytotoxicity rating 0-100) ([11]; 250 g ai/ha): 20
- Post-emerge Herbicidal Activity CASOB (phytotoxicity rating 0-100) ([12]; 250 g ai/ha): 0
- Post-emerge Herbicidal Activity DIGSA (phytotoxicity rating 0-100) ([13]; 250 g ai/ha): 0
- Post-emerge Herbicidal Activity SORHA (phytotoxicity rating 0-100) ([14]; 250 g ai/ha): 0
- Post-emerge Herbicidal Activity SETVI (phytotoxicity rating 0-100) ([15]; 250 g ai/ha): 0
- Post-emerge Herbicidal Activity ECHCG (phytotoxicity rating 0-100) ([16]; 250 g ai/ha): 0
- Post-emerge Herbicidal Activity IPOHE (phytotoxicity rating 0-100) ([17]; 250 g ai/ha): 30
- Post-emerge Herbicidal Activity ABUTH (phytotoxicity rating 0-100) ([18]; 250 g ai/ha): 90
- Post-emerge crop damage SOY (phytotoxicity rating 0-100) [19]: 30
- Post-emerge crop damage CORN (phytotoxicity rating 0-100) [20]: 10
- Post-emerge crop damage RICE (phytotoxicity rating 0-100) [21]: 20
- Pre-emerge Herbicidal Activity SOY (crop damage rating) [22]: 0
- Pre-emerge Herbicidal Activity CORN (crop damage rating) [23]: 0
- Pre-emerge Herbicidal Activity RICE (crop damage rating) [24]: 10

Compound: Cn1c(C(F)(F)F)cc(=O)n(-c2c(F)cc(Cl)c3c2NCCO3)c1=O [Compound 2-1, 3-(8-Chloro-6-fluoro-3,4-dihydro-2H-1,4-benzoxazin-5-yl)-1-methyl-6-trifluoromethyl-2,4(1H,3H)-pyrimidindione]
- Pre-emerge Herbicidal Activity AMARE (phytotoxicity rating) ([1]; 125 g ai/ha): 100
- Pre-emerge Herbicidal Activity CHEAL (phytotoxicity rating) ([2]; 125 g ai/ha): 100
- Pre-emerge Herbicidal Activity CASOB (phytotoxicity rating) ([3]; 125 g ai/ha): 40
- Pre-emerge Herbicidal Activity DIGSA (phytotoxicity rating) ([4]; 125 g ai/ha): 100
- Pre-emerge Herbicidal Activity SORHA (phytotoxicity rating) ([5]; 125 g ai/ha): 95
- Pre-emerge Herbicidal Activity SETVI (phytotoxicity rating) ([6]; 125 g ai/ha): 100
- Pre-emerge Herbicidal Activity ECHCG (phytotoxicity rating) ([7]; 125 g ai/ha): 50
- Pre-emerge Herbicidal Activity IPOHE (phytotoxicity rating) ([8]; 125 g ai/ha): 50
- Pre-emerge Herbicidal Activity ABUTH (phytotoxicity rating) ([9]; 125 g ai/ha): 100
- Post-emerge Herbicidal Activity AMARE (phytotoxicity rating 0-100) ([10]; 125 g ai/ha): 90
- Post-emerge Herbicidal Activity CHEAL (phytotoxicity rating 0-100) ([11]; 125 g ai/ha): 100
- Post-emerge Herbicidal Activity CASOB (phytotoxicity rating 0-100) ([12]; 125 g ai/ha): 80
- Post-emerge Herbicidal Activity DIGSA (phytotoxicity rating 0-100) ([13]; 125 g ai/ha): 0
- Post-emerge Herbicidal Activity SORHA (phytotoxicity rating 0-100) ([14]; 125 g ai/ha): 0
- Post-emerge Herbicidal Activity SETVI (phytotoxicity rating 0-100) ([15]; 125 g ai/ha): 50
- Post-emerge Herbicidal Activity ECHCG (phytotoxicity rating 0-100) ([16]; 125 g ai/ha): 10
- Post-emerge Herbicidal Activity IPOHE (phytotoxicity rating 0-100) ([17]; 125 g ai/ha): 100
- Post-emerge Herbicidal Activity ABUTH (phytotoxicity rating 0-100) ([18]; 125 g ai/ha): 100
- Post-emerge crop damage SOY (phytotoxicity rating 0-100) [19]: 90
- Post-emerge crop damage CORN (phytotoxicity rating 0-100) [20]: 20
- Post-emerge crop damage RICE (phytotoxicity rating 0-100) [21]: 40
- Pre-emerge Herbicidal Activity SOY (crop damage rating) [22]: 50
- Pre-emerge Herbicidal Activity CORN (crop damage rating) [23]: 20
- Pre-emerge Herbicidal Activity RICE (crop damage rating) [24]: 70
